Data published in ChEMBL document CHEMBL1201862, “PubChem BioAssay data set” (2004).
Active and inactive are the calls of the source.

Experiments:
[1] = target: Cytochrome P450 3A4 (Homo sapiens, UniProt P08684);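 note: CYP3A4 tested as one member of a cytochrome P450 panel screen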
[2] = target: Cytochrome P450 2D6 (Homo sapiens, UniProt P10635);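 note: CYP2D6 member of a cytochrome P450 panel assay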
[3] = target: T1, Heat shock factor protein 1 (Mus musculus, UniProt P38532); experiment: decrease of HSF1-responsive luciferase luminescence – cell-based, NIH3T3, dose retest, confirmation (AID 2382); assay type: functional;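 note: NIH3T3 fibroblasts with HSF1-driven luciferase reporter stressed by proteasome inhibitor MG132; luminescence from HSF1-driven luciferase expression after 8 hours of MG132 stress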
T1 sequence (P38532 whole entry): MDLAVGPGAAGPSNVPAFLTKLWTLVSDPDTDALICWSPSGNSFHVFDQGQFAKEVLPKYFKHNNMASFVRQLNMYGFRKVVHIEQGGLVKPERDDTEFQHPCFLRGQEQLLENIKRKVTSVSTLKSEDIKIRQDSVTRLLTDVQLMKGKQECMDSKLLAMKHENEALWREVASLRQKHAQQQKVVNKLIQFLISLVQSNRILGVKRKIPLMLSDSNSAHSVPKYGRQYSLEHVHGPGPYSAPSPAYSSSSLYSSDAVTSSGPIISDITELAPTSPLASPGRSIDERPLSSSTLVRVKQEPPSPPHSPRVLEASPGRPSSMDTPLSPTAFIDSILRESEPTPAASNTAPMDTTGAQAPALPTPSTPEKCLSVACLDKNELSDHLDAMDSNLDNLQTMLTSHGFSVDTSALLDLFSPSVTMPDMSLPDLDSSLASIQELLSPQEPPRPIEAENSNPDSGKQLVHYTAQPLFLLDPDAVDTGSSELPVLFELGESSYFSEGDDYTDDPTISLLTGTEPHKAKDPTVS

[4] = P. falciparum Dd2 growth inhibitors, dose response, SYBR Green, cherry-picked samples (AID 1159567); assay type: functional, cell-based
[5] = target: Cytochrome P450 2C19 (Homo sapiens, UniProt P33261); experiment: Cytochrome panel assay with activity outcomes. Panel member name: p450-cyp2c19 Compounds with AC50 equal or less than 10 uM are considered active; assay type: functional
[6] = target: T2, Cytochrome P450 1A2 (Homo sapiens, UniProt P05177);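 note: PubChem cytochrome P450 panel assay, CYP1A2 panel member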
T2 sequence (P05177 whole entry): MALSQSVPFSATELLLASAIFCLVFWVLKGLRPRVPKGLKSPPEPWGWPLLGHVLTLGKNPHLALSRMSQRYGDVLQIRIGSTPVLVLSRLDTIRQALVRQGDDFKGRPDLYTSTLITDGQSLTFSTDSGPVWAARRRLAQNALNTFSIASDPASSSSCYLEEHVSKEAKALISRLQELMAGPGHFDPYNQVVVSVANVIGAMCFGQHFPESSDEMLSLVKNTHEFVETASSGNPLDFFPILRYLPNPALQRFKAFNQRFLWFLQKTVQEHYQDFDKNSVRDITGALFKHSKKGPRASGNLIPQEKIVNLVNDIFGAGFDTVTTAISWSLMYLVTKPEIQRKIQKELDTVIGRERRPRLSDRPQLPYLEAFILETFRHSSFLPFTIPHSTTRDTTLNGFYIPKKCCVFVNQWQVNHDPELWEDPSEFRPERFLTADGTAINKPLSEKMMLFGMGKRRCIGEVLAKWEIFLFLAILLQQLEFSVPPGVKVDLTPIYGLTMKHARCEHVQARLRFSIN

Sequence of Cytochrome P450 3A4 (P08684 whole entry): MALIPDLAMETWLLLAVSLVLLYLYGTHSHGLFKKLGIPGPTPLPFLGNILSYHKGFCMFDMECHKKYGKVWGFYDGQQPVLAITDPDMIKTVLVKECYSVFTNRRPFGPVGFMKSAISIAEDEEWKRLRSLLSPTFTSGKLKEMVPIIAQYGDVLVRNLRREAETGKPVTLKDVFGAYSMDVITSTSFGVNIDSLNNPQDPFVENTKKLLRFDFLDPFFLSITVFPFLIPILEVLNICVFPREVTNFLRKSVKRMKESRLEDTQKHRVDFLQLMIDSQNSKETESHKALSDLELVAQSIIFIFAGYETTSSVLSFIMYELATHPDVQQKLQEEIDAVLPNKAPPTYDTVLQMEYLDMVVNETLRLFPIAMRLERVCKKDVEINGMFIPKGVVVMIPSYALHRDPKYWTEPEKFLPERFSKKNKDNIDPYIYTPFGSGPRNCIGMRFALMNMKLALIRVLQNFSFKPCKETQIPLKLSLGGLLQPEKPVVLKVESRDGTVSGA
Sequence of Cytochrome P450 2C19 (P33261 whole entry): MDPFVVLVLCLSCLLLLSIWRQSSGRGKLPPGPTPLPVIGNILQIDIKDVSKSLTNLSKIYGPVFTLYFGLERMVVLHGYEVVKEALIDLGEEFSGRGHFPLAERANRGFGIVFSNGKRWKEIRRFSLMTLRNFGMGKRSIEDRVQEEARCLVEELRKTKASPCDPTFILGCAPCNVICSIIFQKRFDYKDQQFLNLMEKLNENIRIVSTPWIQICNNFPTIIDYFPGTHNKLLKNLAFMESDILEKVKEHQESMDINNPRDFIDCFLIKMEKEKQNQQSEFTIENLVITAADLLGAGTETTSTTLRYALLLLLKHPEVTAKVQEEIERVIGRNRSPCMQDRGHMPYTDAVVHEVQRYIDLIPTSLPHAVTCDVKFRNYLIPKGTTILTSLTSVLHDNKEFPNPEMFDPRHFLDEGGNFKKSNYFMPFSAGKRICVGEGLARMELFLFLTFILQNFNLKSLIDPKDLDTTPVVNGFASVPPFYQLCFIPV
Sequence of Cytochrome P450 2D6 (P10635 whole entry): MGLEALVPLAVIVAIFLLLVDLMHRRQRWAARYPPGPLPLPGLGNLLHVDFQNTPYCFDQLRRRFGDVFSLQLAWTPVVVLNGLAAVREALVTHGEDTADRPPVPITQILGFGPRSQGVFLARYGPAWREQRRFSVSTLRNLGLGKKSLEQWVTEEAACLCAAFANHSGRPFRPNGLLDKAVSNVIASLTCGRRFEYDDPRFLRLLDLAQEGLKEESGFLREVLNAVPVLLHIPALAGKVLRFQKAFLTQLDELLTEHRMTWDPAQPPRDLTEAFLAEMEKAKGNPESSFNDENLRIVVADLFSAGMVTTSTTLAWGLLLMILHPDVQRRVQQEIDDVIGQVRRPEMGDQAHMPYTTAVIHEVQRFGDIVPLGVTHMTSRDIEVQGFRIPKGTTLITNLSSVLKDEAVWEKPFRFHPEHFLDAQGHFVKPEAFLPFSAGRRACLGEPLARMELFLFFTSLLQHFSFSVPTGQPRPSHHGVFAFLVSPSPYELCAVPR

In the case of `O=C(CSc1ccccn1)Nc1nc2ccc(Br)cc2s1`, the AC50 [1] is reported as 22.4 µM (inconclusive) and the AC50 [2] is reported as 15.8 µM (inconclusive).

For `O=C(O)c1cccc(N2C(=O)/C(=C/c3ccc([N+](=O)[O-])cc3)C=C2c2ccccc2)c1`, the EC50 [3] was > 195 µM (not active).

For `OC[C@@H]1CC[C@@H]2O[C@H](CCc3ccc(C#Cc4ccccc4)cc3)[C@H](n3cc(-c4ccccc4)nn3)C[C@@H]2O1`, the AC50 [4] was 3.86 µM (active).

For `Cc1c2cccc(Sc3ccccc3)c2c2c3c(cccc13)[S+](c1ccccc1)C2` (centres undefined), the AC50 [1] was 3.16 µM (inconclusive) and the AC50 [2] was 5.01 µM (inconclusive).

With `O=C(Nc1cccc(F)c1)N[C@@H]1CC[C@H](CCNS(=O)(=O)c2cccc(Cl)c2)O[C@H]1CO` the AC50 [4] was 31.2 µM (active).

For `O=[N+]([O-])c1cccc(-c2nnc(-c3ccccc3)o2)c1`, the EC50 [3] was > 195 µM (not active).

With `O=C(CSc1ccc(Br)cc1)Nc1ccccc1N1CCOCC1` the EC50 [3] was > 195 µM (not active).

For `CS(=O)(=O)Nc1cccc(-c2nccc(NCc3cccs3)n2)c1`, the AC50 ([5]; read-out: AC50) was 25.1 µM (inconclusive) and the AC50 [2] was 25.1 µM (inconclusive).

In the case of `Cn1c(C(=O)O)c(CC(=O)Nc2ccc3c(c2)OCCO3)c2ccccc21`, the EC50 [3] is reported as 1.95 µM (active).

In the case of `O=C(C[C@H]1C[C@H]2c3cc(NC(=O)Cc4ccncc4)ccc3O[C@H]2[C@H](CO)O1)NCc1ccccc1`, the AC50 [4] is reported as 4.55 µM (active).

In the case of `CC(=O)N1CCC2(CC1)CCN(c1cccc(-c3ccccc3)c1)CC2`, the AC50 [2] is reported as 31.6 µM (inconclusive).

With `COc1ccc(NS(=O)(=O)NC(=O)c2cn(C)c3ccccc23)cc1` the EC50 [3] was > 195 µM (not active).

In the case of `CN1CCN([C@@H]2Cc3ccccc3Sc3ccc(Cl)cc32)CC1`, the AC50 ([5]; read-out: AC50) is reported as 25.1 µM (inconclusive) and the AC50 [6] is reported as 12.6 µM (inconclusive).

In the case of `Cc1cc(Cc2cc(Cc3cc(C)cc(C(C)(C)C)c3O)c(C)cc2C)c(O)c(C(C)(C)C)c1`, the AC50 [2] is reported as 3.98 µM (inconclusive).

In the case of `COc1ccc2c3c([nH]c2c1)[C@H](CO)N(Cc1cc(F)ccc1F)CC31CN(C(=O)C2CCC2)C1`, the AC50 [4] is reported as 7.04 µM (active).

In the case of `CCCNC(=O)c1ccc(N2CCC3(CC2)CC(c2cccc(Br)c2)=NO3)c(NC(=O)c2ccc(Br)cc2)c1`, the EC50 [3] is reported as > 195 µM (not active).

In the case of `O=C(CNC1CCCCCC1)Nc1ccccc1N1CCCCC1`, the AC50 [6] is reported as 14.1 µM (inconclusive).

For `CCCCn1c(C(C)NC(=O)CC)nc2ccccc21` (centres undefined), the EC50 [3] was > 195 µM (not active).

In the case of `Cc1noc(C)c1-c1cc(NC2CC2)ncn1`, the AC50 [1] is reported as 25.1 µM (inconclusive), the AC50 ([5]; read-out: AC50) is reported as 31.6 µM (inconclusive) and the AC50 [2] is reported as 20 µM (inconclusive).

For `O=C(c1ccncc1)N1CCC2(CC1)CN(c1ncccn1)C2`, the AC50 [2] was 20 µM (inconclusive) and the AC50 [6] was 6.31 µM (inconclusive).

With `CC(Sc1nc(NCc2ccccc2)nc(N(C)C)n1)C(=O)Nc1ccccc1` (centres undefined) the AC50 [2] was 15.8 µM (inconclusive).

In the case of `O=C(c1ccccc1F)N1CC[C@H]2[C@H](CO)Nc3ccc(C#Cc4ccc(F)cc4)cc3[C@H]21`, the AC50 [4] is reported as 4.96 µM (active).

For `CCn1c(SCC(=O)N(C)C2CCS(=O)(=O)C2)nnc1-c1cccs1` (centres undefined), the EC50 [3] was > 195 µM (not active).

With `Cc1ccc(N(Cc2cc3ccc(C)cc3nc2O)C(=O)c2cccs2)cc1` the EC50 [3] was > 195 µM (not active).

In the case of `CC1CN(C(=O)Nc2ccc3c(c2)OCCO3)CC(C)O1` (centres undefined), the EC50 [3] is reported as > 195 µM (not active).

In the case of `COc1ccc2c3c([nH]c2c1)[C@H](CO)N(Cc1ccc(F)cc1)CC31CCN(C(C)=O)CC1`, the AC50 [4] is reported as 5.92 µM (active).

For `O=C1c2ccccc2C(Nc2ccc3c(c2)OCCO3)N1c1ccccn1` (centres undefined), the EC50 [3] was 57.5 µM (active).

For `Cc1ccccc1-c1cc(Nc2ccc(F)cc2)ncn1`, the AC50 [1] was 39.8 µM (inconclusive) and the AC50 [2] was 31.6 µM (inconclusive).

For `C/C=C/c1ccc([C@H]2[C@@H](CO)N(C(=O)CC)[C@@H]2CNCC2CCCCC2)cc1`, the AC50 [4] was 4.04 µM (active).

For `COc1cc(C(=O)Nc2ccc3c(c2)OCCO3)c(-n2cnnn2)cc1OC`, the AC50 [1] was 25.1 µM (inconclusive), the AC50 [5] was “inconclusive” and the AC50 [6] was 2.51 µM (inconclusive).

For `CCCOc1ccc(OCCNC2CCCC2)cc1`, the AC50 ([5]; read-out: AC50) was 31.6 µM (inconclusive) and the AC50 [6] was 14.1 µM (inconclusive).

For `C[C@@H]1CN([C@H](C)CO)C(=O)c2cccc(NS(=O)(=O)c3ccccc3)c2O[C@H]1CN(C)Cc1ccc(-c2ccccc2)cc1`, the AC50 [4] was 3.68 µM (active).

With `Cc1cc2ccccc2c(=O)n1CC(=O)Nc1ccc2c(c1)OCO2` the EC50 [3] was > 195 µM (not active).

In the case of `COc1ncc2nc(-c3cccs3)c(=O)n(Cc3cccs3)c2n1`, the AC50 [2] is reported as 3.98 µM (inconclusive).

With `CON(c1nc(N(C)C)nc(N(C)C)n1)S(=O)(=O)c1ccccc1Cl` the AC50 [2] was 25.1 µM (inconclusive) and the AC50 [6] was 14.1 µM (inconclusive).

For `Cc1ccc(Cn2nc(C)c(NC(=O)c3cc(-c4ccco4)on3)c2C)cc1`, the AC50 [6] was 39.8 µM (inconclusive).

With `O=C1/C(=C\c2ccccc2)C[C@@]2(O)[C@H]3Cc4ccc(O)c5c4[C@@]2(CCN3CC2CC2)[C@@H]1O5` the AC50 [1] was 31.6 µM (inconclusive), the AC50 ([5]; read-out: AC50) was 15.8 µM (inconclusive) and the AC50 [6] was 31.6 µM (inconclusive).

With `c1cc(C2N3CCCN2CC3)ccn1` (centres undefined) the AC50 [5] was “inconclusive” and the AC50 [6] was 1.26 µM (inconclusive).

With `C[C@@H]1CN([C@@H](C)CO)C(=O)c2c(c3ccccc3n2C)-c2ccccc2CO[C@H]1CN(C)C(=O)Cc1ccccc1` the AC50 [4] was 5.21 µM (active).

With `N#C/C(=C\c1ccccn1)c1ccccn1` the EC50 [3] was > 195 µM (not active).

With `C[C@@H](C(=O)Nc1ccc2ccccc2c1)[C@H]1C[C@]1(C)[C@H](NC(=O)c1cnccn1)c1ccccc1` the AC50 [6] was 25.1 µM (inconclusive).

In the case of `Cc1ccccc1-c1nccc(NCCN2CCOCC2)n1`, the AC50 [2] is reported as 31.6 µM (inconclusive).

In the case of `CSc1ccccc1NC(=O)C1=CC(c2ccc(C)cc2)=NS(=O)(=O)N1C`, the EC50 [3] is reported as > 195 µM (not active).

For `Cc1ccc(NC2=NC(=O)/C(=C\c3cccs3)S2)cc1C`, the EC50 [3] was > 195 µM (not active).

With `Cc1onc(-c2c(F)cccc2Cl)c1C(=O)c1ccccc1` the EC50 [3] was > 195 µM (not active).

For `Cc1cccc(CNc2ccnc(-c3cccc(NS(C)(=O)=O)c3)n2)c1`, the AC50 [2] was 39.8 µM (inconclusive).

With `COc1cccc(-c2ccc3c(c2)[C@@H]2[C@@H](CCN2C(=O)C2CCCCC2)[C@H](CO)N3)c1` the AC50 [4] was 4.18 µM (active).

For `CC(=O)Cc1c[nH]c2ccccc12`, the EC50 [3] was > 195 µM (not active).

With `COc1cccc(N(CC(=O)Nc2cccnc2)S(C)(=O)=O)c1` the EC50 [3] was > 195 µM (not active).
